Laboratory results reported in patent publication US12729377B2, “RNAi agents and compositions for inhibiting expression of angiopoietin-like 3 (ANGPTL3), and methods of use” (Arrowhead Pharmaceuticals, Inc., priority 2017, dated 2026).
In the oligonucleotide strings, read from the 5' end, every base follows the letter of its sugar. An asterisk marks phosphorothioate; unmarked linkages are phosphodiester. Other units and linkages are bracketed, terminal groups are in braces. A string of capitals states the bases alone. {NAG37} = tridentate N-acetyl-galactosamine targeting ligand, structure (NAG37)s; [invAb] = inverted abasic unit; m = 2'-O-methyl; f = 2'-fluoro

Assays:
ANGPTL3 gene [1] = assay: Example 6: serum HDL in mice; format: in vivo, C57bl/6 mice
Method: To assess the in vivo activity of additional ANGPTL3 RNAi agents that are designed to target position 304 on the ANGPTL3 gene, six- to eight-week-old female C57bl/6 mice were used. Pre-dose serum samples were taken at day −1 after a four hour fast. At day 1, each mouse was given a single subcutaneous administration of 200 μl containing 0.5 mg/kg (mpk) of an ANGPTL3 RNAi agent in D5W (dextrose in 5% water), or control (D5W) with no RNAi agent, according to the dosing groups recited in Table 25.
Each of the RNAi agents included a modified sequence and an N-acetyl-galactosamine-containing targeting ligand conjugated to the 5′ terminal end of the sense strand. (See Tables 3, 4, and 5 for modified sequences and targeting ligand structures). The injections were performed between the skin and muscle (i.e. subcutaneous injections) into the loose skin over the neck and shoulder area. Three (3) mice in each group were tested (n=3). Serum was collected on days 8, 15, 22, 30, and on day 43 for certain groups (i.e., Groups 1, 2, 5, and 10 only). Mice were fasted for four hours prior to each collection. ANGPTL3 protein levels in serum were measured by ELISA assay (R&D Systems), according to the manufacturer's recommendations. Triglycerides, total cholesterol, high-density lipoprotein (HDL), and low-density lipoprotein (LDL) in serum were measured on a Cobas® Integra 400 (Roche Diagnostics), according to the manufacturer's recommendations.
The ANGPTL3 protein levels, triglyceride levels, total cholesterol levels, HDL levels, and LDL levels for each animal were normalized. For normalization, the level of ANGPTL3 protein, triglyceride, HDL, and total cholesterol, respectively, for each animal at a time point, was divided by the pre-treatment level of expression in that animal (in this case at day −1) to determine the ratio of expression “normalized to pre-treatment.” Expression at a specific time point was then normalized to the D5W control group by dividing the “normalized to pre-treatment” ratio for an individual animal by the mean “normalized to pretreatment” ratio of all mice in the D5W control group.

ANGPTL3 gene [2] = assay: Example 14: RNAi agent and statin, serum total cholesterol in LDLR knockout mice; format: in vivo, LDLR KO mice
Excerpt: To evaluate the effect of co-administration of RNAi agents and statins in a disease model, LDLR KO mice were commercially obtained (The Jackson Laboratory). For three weeks prior to the onset of the study, forty-one (41) male 7 to 8 week old LDLR KO mice were placed on a high fat (“western”) diet (Teklad Custom Diets TD.88137), and remained on that diet throughout the duration of the study. Pre-dose serum samples were taken on study Day 1 after a four hour fast. The dosing regimen for the study is recited in the following Table 72:
• Mice were treated at 40 mg/kg for the first 11 days, then switched to 20 mg/kg thereafter.
The vehicle used for the oral gavage in the study was a 1:1 mixture of Ora-Plus®: Ora-Sweet® solution, which were acquired commercially. For the preparation of the atorvastatin oral gavage administrations, the respective desired dose of atorvastatin was first dissolved in sterile water (0.3 mL water per 1 mL of desired formulation) and vortexed until smooth, followed by the addition of a mixture of 1:1 Ora-Plus®: Ora-Sweet® solution (0.7 mL vehicle per 1 mL of desired formulation) and vortexed. On day 1 and for each day thereafter an oral gavage dose was administered for each of the Groups except for Group 2. On Day 23, Groups 1, 2, 3, and 4 received a single subcutaneous administration of 2.5 mg/kg dose ([…] solution) of an ANGPTL3 RNAi agent in D5W (dextrose in 5% water), or vehicle control (D5W) with no RNAi agent.
The RNAi agent tested (AD05488) included a modified sequence and an N-acetyl-galactosamine-containing targeting ligand conjugated to the 5′ terminal end of the sense strand. (See Tables 3, 4, and 5 for modified sequences and targeting ligand structures). The injections were performed between the skin and muscle (i.e. subcutaneous injections) into the loose skin over the neck and shoulder area. Serum was collected on days 8, 15, 22 (pre-RNAi agent injection), 29, 36, 43, and 50. LDLR KO mice were fasted for four hours prior to each collection.
ANGPTL3 protein levels in serum were measured by ELISA assay (R&D Systems), according to the manufacturer's recommendations. Among other biomarkers, triglycerides, total cholesterol, and low-density lipoprotein (LDL) in serum were measured on a Cobas® Integra 400 (Roche Diagnostics), according to the manufacturer's recommendations.
The ANGPTL3 protein levels, triglyceride levels, total cholesterol levels, HDL levels, and LDL levels for each animal were normalized. For normalization, respective levels of ANGPTL3 protein, TG, total cholesterol, or LDL for each animal at a time point was divided by the pre-treatment level of expression in that animal (in this case pre-dose levels on Day 1) to determine the ratio of expression “normalized to pre-treatment.” Data from the study set forth in this Example are shown in the following Tables 73-76: […]

ANGPTL3 gene [3] = assay: Example 4: serum LDL in mice; format: in vivo, C57bl/6 mice
[4] = Day 22, 0.5 mg/kg single SC injection on day 1, n=3
[5] = Day 43, 0.5 mg/kg single SC injection on day 1, n=3

AD05488: RNAi agent duplex: antisense AM07235-AS, sense AM07234-SS (antisense mU*fA*mC*fUmGfAmUfCmAfAmAfUmAfUmGfUmUfGmAfG*mC; sense {NAG37}*[invAb]*mGmCmUmCmAmAmCmAfUfAfUmUmUmGmAmUmCmAmGmUmA*[invAb])
Avg HDL, normalized to pre-treatment and control (ANGPTL3 gene [1]; Day 8, 0.5 mg/kg single SC injection on day 1, n=3): 0.783
Avg HDL, normalized to pre-treatment and control (ANGPTL3 gene [1]; Day 15, 0.5 mg/kg single SC injection on day 1, n=3): 0.763
Avg HDL, normalized to pre-treatment and control (ANGPTL3 gene [1]; [4]): 0.793
Avg HDL, normalized to pre-treatment and control (ANGPTL3 gene [1]; Day 30, 0.5 mg/kg single SC injection on day 1, n=3): 0.956
Avg HDL, normalized to pre-treatment and control (ANGPTL3 gene [1]; [5]): 1.088
Avg Total Chol normalized to pre-treatment (ANGPTL3 gene [2]; Group 2: no gavage, 2.5 mg/kg AD05488 SC on day 23, Day 8 (pre-RNAi agent injection)): 0.962
Avg Total Chol normalized to pre-treatment (ANGPTL3 gene [2]; Group 2: no gavage, 2.5 mg/kg AD05488 SC on day 23, Day 15 (pre-RNAi agent injection)): 1.122
Avg Total Chol normalized to pre-treatment (ANGPTL3 gene [2]; Group 2: no gavage, 2.5 mg/kg AD05488 SC on day 23, Day 22 (pre-RNAi agent injection)): 1.261
Avg Total Chol normalized to pre-treatment (ANGPTL3 gene [2]; Group 2: no gavage, 2.5 mg/kg AD05488 SC on day 23, Day 29): 0.645
Avg Total Chol normalized to pre-treatment (ANGPTL3 gene [2]; Group 2: no gavage, 2.5 mg/kg AD05488 SC on day 23, Day 36): 0.518
Avg Total Chol normalized to pre-treatment (ANGPTL3 gene [2]; Group 2: no gavage, 2.5 mg/kg AD05488 SC on day 23, Day 43): 0.512
Avg Total Chol normalized to pre-treatment (ANGPTL3 gene [2]; Group 2: no gavage, 2.5 mg/kg AD05488 SC on day 23, Day 50): 0.515
Avg Total Chol normalized to pre-treatment (ANGPTL3 gene [2]; Group 3: 10 mg/kg daily oral gavage atorvastatin, 2.5 mg/kg AD05488 on day 23, Day 8 (pre-RNAi agent injection)): 0.763
Avg Total Chol normalized to pre-treatment (ANGPTL3 gene [2]; Group 3: 10 mg/kg daily oral gavage atorvastatin, 2.5 mg/kg AD05488 on day 23, Day 15 (pre-RNAi agent injection)): 0.620
Avg Total Chol normalized to pre-treatment (ANGPTL3 gene [2]; Group 3: 10 mg/kg daily oral gavage atorvastatin, 2.5 mg/kg AD05488 on day 23, Day 22 (pre-RNAi agent injection)): 0.758
Avg Total Chol normalized to pre-treatment (ANGPTL3 gene [2]; Group 3: 10 mg/kg daily oral gavage atorvastatin, 2.5 mg/kg AD05488 on day 23, Day 29): 0.444
Avg Total Chol normalized to pre-treatment (ANGPTL3 gene [2]; Group 3: 10 mg/kg daily oral gavage atorvastatin, 2.5 mg/kg AD05488 on day 23, Day 36): 0.362
Avg Total Chol normalized to pre-treatment (ANGPTL3 gene [2]; Group 3: 10 mg/kg daily oral gavage atorvastatin, 2.5 mg/kg AD05488 on day 23, Day 43): 0.331
Avg Total Chol normalized to pre-treatment (ANGPTL3 gene [2]; Group 3: 10 mg/kg daily oral gavage atorvastatin, 2.5 mg/kg AD05488 on day 23, Day 50): 0.322
Avg Total Chol normalized to pre-treatment (ANGPTL3 gene [2]; Group 4: 20 mg/kg* daily oral gavage atorvastatin (40 mg/kg first 11 days), 2.5 mg/kg AD05488 on day 23, Day 8 (pre-RNAi agent injection)): 0.682
Avg Total Chol normalized to pre-treatment (ANGPTL3 gene [2]; Group 4: 20 mg/kg* daily oral gavage atorvastatin (40 mg/kg first 11 days), 2.5 mg/kg AD05488 on day 23, Day 15 (pre-RNAi agent injection)): 0.622
Avg Total Chol normalized to pre-treatment (ANGPTL3 gene [2]; Group 4: 20 mg/kg* daily oral gavage atorvastatin (40 mg/kg first 11 days), 2.5 mg/kg AD05488 on day 23, Day 22 (pre-RNAi agent injection)): 0.857
Avg Total Chol normalized to pre-treatment (ANGPTL3 gene [2]; Group 4: 20 mg/kg* daily oral gavage atorvastatin (40 mg/kg first 11 days), 2.5 mg/kg AD05488 on day 23, Day 29): 0.448
Avg Total Chol normalized to pre-treatment (ANGPTL3 gene [2]; Group 4: 20 mg/kg* daily oral gavage atorvastatin (40 mg/kg first 11 days), 2.5 mg/kg AD05488 on day 23, Day 36): 0.295
Avg Total Chol normalized to pre-treatment (ANGPTL3 gene [2]; Group 4: 20 mg/kg* daily oral gavage atorvastatin (40 mg/kg first 11 days), 2.5 mg/kg AD05488 on day 23, Day 43): 0.293
Avg Total Chol normalized to pre-treatment (ANGPTL3 gene [2]; Group 4: 20 mg/kg* daily oral gavage atorvastatin (40 mg/kg first 11 days), 2.5 mg/kg AD05488 on day 23, Day 50): 0.310
total reductions in total cholesterol (ANGPTL3 gene [2]; co-administration of atorvastatin and RNAi agent (Groups 3 and 4), LDLR KO mice on high fat diet): ~ 70%

AD05308: RNAi agent duplex: antisense AM07003-AS, sense AM07002-SS (chain 1 mU*fG*mU*fUmGfAmAfUmUfAmAfUmGfUmCfCmAfUmGfG*mA; chain 2 {NAG37}*[invAb]*mUmCmCmAmUmGmGmAfCfAfUmUmAmAmUmUmCmAmAmCmA*[invAb])
Avg LDL, normalized to pre-treatment and control (ANGPTL3 gene [3]; [4]): 1.209
Avg LDL, normalized to pre-treatment and control (ANGPTL3 gene [3]; Day 29, 0.5 mg/kg single SC injection on day 1, n=3): 1.251
Avg LDL, normalized to pre-treatment and control (ANGPTL3 gene [3]; [5]): 1.375
